Values of other authors, collected in US10449194B2 (Tocagen Inc., priority 2008, dated 2019).
Read-outs that look alike come from different tables or passages of the source.

[1] = patients with normal renal function

Time to peak serum concentrations (2 gram oral dose, normal subjects): ≤ 2 h
Average half-life (nephrectomized or anuric patients): 85 h
Bioavailability (absorption) after oral administration (oral vs intravenous AUC of serum concentrations): 76-89%
Half-life in the serum [1]: 2 to 5 h
Time to peak concentrations in serum and other body fluids [1]: 1 to 2 h
Half-life in the serum (patients with severe renal insufficiency): up to 85 h
SMILES: Nc1nc(=O)[nH]cc1F [Example 5-FC, 5-fluorocytosine]
Serum level above which toxicity generally occurs (Vermes et al. 2000): > 100 µg/mL
